According to patent publication US12454530B2, “Amido cyclohexane acid derivatives as LPA receptor inhibitors” (CHIESI FARMACEUTICI S.P.A., priority 2020, dated 2025):

What was measured:
[1] = Permeability on Caco-2 cells monolayers; type: in vitro ADME; conditions: human, with Elacridar 10 µM (PgP inhibitor), Papp A>B with PgP inhibitor Elacridar, 10 μM compound, read-out: Passive Permeability
Method: Even more advantageously, the compounds of formula (I) of the present invention are also endowed with a good permeability profile that, in its turn, can ensure a suitable bioavailability for an oral administration. The permeability was assessed in human Caco 2 cell line, an in vitro model that mimic human gastrointestinal barrier and so useful to predic oral absorption.
The permeability of the compounds of the present invention was evaluated performing the assay on Caco-2 cells monolayers (human colon adenocarcinoma immortalized cell) by measuring the transport of compound (absorption and secretion) in both directions: apical to basolateral direction (A>B) and basolateral to apical (B>A) with and without PgP inhibitor (Elacridar).
The cells, purched from ReadyCell in 96 well format (Cod. KRECE-CCR50), were cultured by the supplier for 21 day on transwell supports in DMEM 1 g/L glucose culture medium supplemented with Fetal Bovin Sierum (10%), Glutamine 200 mM (1%) and Penicillin 10000 U/ml-10 mg/ml Streptomycin (1%).
On day 21 of colture, cell monolayers integrity was verified by measuring the trans-epithelial electric resistance (TEER) using the EVOM equipment (Endohm, WPI, Germany) and studying the apparent permeability (Papp) of reference compounds (Sulpiride and Metoprolol). Furthermore, as a control, the Talinolol 10 uM (Pgp efflux substrate) with and without Elacridar in both directions was used.
The sample solution was prepared dissolving test compound in DMSO at the concentration of 10 mM and then diluted in the Assay Buffer (Hank's Balance Salt Solution) warmed at 37° C. before use, to give the 10 μM Compound working solution with and without 10 μM Elacridar. These working solutions were added to donor compartment (apical for A>B direction and basolateral for B>A direction) and Assay Buffer (Hank's Balance Salt Solution) to the receiver compartment (basolateral for A>B direction and apical for B>A direction). The plate was incubated at 37° C. for 120 min, all incubation were conducted in triplicates. At the end of incubation, samples from donor and receiver compartments were collected for HPLC-MS/MS analyses.
The permeability coefficients (Papp) in both directions: apical to basolateral (A>B) and basolateral to apical (B>A) with and without PgP inhibitor (Elacridar) was calculated in nm/sec, using the following equation:
[formula] • where: • Cr=measured concentration in the receiver well at the time t (expressed as IS ratio) • Vr=volume of the receiver well (ml) • t=time (sec) • A=membrane surface area (cm^2) • C0=initial donor concentration • Passive Papp is considered Papp A>B with PgP inhibitor Elacridar.

[2] = target: human recombinant LPA1 expressed in CHO cells (Homo sapiens (Human), UniProt Q92633); assay: LPA1 antagonist FLIPR calcium assay in CHO-hLPA1 cells; type: cell-based; conditions: range of activity; CHO-hLPA1, LPA EC80, Ca2+ mobilization; read-out: LPA1 IC50
Method: The effectiveness of compounds of the present invention as LPA1 antagonists can be determined at the human recombinant LPA1 expressed in CHO cells, using a FLIPR assay in 384 well format.
CHO-hLPA1 cell lines are cultured in a humidified incubator at 5% CO2 in DMEM/F-12 (1:1) MIXTURE with 2 mM Glutamax, supplemented with 10% of Foetal Bovine Serum, 1 mM Sodium Pyruvate, 11 mM Hepes and 1× Penicillin/Streptomycin. […] Serial dilutions (1:3 or 1:4, 11 points CRC) of compounds are performed in 100% DMSO at 200× the final concentration. […] The final concentration of DMSO in the assay will be 0.5% in each well. Medium is removed by aspiration and cells are then incubated with 30 μl of a loading solution containing 5 μM of the cytoplasmic Ca2+ indicator Cal-520 AM in Assay Buffer containing 2.5 mM probenecid for 30 min at 37° C. incubator (cell loading). The loaded cell plates are transferred into the FLIPR instrument and calcium responses are monitored during the on-line addition protocols. For testing of compounds, after the cell loading, 10 μl/well of 4× antagonists' solution was added onto the cells. After 30 min pre-incubation (at 37° C.), 10 μl/well of 5× concentrated LPA EC80 was added and Ca2+ mobilization responses was followed during the on-line addition protocol. Intracellular peak fluorescence values subtracted by baseline fluorescence are exported and analysed to determine IC50 values, respectively. The calcium response is expressed as percentage of the maximal inhibition of the EC80 agonist response.
The raw data (peak height expressed as relative fluorescence units) are normalized and transformed into “percent of inhibition”. Curve fitting and pIC50 (−LogIC50) estimations are carried out using a four-parameter logistic model using XLfit Software.

BSEP = BSEP (Homo sapiens (Human), UniProt O95342); assay: BSEP inhibition: biliary clearance of Taurocolic Acid in sandwich-cultured human hepatocytes; type: in vitro ADME; conditions: sandwich-cultured cryopreserved human hepatocytes, probe Taurocolic Acid (TCA); 50 μM test compound, 10 μM TCA, human hepatocytes sandwich configuration
Method: BSEP inhibition was evaluated using human hepatocytes cultured between two layer of collagen (sandwich configuration). In this culture condition, hepatocytes express relevant transporters including BSEP and retain the bile canalicular structure. An inhibition of the biliary clearance of Taurocolic Acid (TCA), a known BSEP substrate, was used to assess BSEP interaction.
BSEP inhibition was evaluated using cryopreserved human hepatocytes (Plateable Cryopreserved Human Hepatocytes, BIOIVT) cultured for 5 day between two layer of collagen (sandwich configuration). In this culture condition, hepatocytes express relevant transporters including BSEP and retain the bile canalicular structure.
On day 5 of culture, hepatic cells are ready for the assay and the biliary clearance of Taurocolic Acid (TCA), a known BSEP substrate, can be estimated in presence and in absence of compound of interest.
The sample solution was prepared dissolving test compound and TCA in DMSO and then diluted in the Assay Buffer: Hank's Balance Salt Solution (HBSS+) warmed at 37° C. before use, to give the 10 μM TCA working solution with and without 50 μM of test compound. Hepatocytes were incubated for 10 minutes with these working solutions allowing TCA to be excreted into bile. At the end of incubation, the working solution was aspirated, and the content of the bile was collected through the addition of HBSS Modified without Ca2+/Mg2+(HBSS−). The presence of Ca2+ in the buffer is required to maintain the integrity of the tight junctions, the diffusional barrier between the canalicular lumen and extracellular space. Instead, incubation of cells in Ca2+-free buffer disrupts the tight junctions and opens the bile canalicular structures, allowing the bile content to be released and collect for HPLC-MS/MS analysis.
The in vitro biliary clearance of TCA incubated with and without test compounds is calculated according to the following formula:
where • Acc. Bile=(TCA amount in HBSS (−) buffer samples (pmol/mg protein)*Volume of each samples (mL))/Protein content per well (mg) • AUC=Incubation time (min)*T0 Concentration. T0 concentration is the initial TCA concentration in the medium.
The inhibition of BSEP was calculated as percentage of inhibition of TCA biliary clearance in presence of compound of interest, according to the following formula: BSEP inhibition %=100−(TCA ClBil with test compound*100)
TCA ClBil without test compound.

Sequence of human recombinant LPA1 expressed in CHO cells (Q92633 whole entry): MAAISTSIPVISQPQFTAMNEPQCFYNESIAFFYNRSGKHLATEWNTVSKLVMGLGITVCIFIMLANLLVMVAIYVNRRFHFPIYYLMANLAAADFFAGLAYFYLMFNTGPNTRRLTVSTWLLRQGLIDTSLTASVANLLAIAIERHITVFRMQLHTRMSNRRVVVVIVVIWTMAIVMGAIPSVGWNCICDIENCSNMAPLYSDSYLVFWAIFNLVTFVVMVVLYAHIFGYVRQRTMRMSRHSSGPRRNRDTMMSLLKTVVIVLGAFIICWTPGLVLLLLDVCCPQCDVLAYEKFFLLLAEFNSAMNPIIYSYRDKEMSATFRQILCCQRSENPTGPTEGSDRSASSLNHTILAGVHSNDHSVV
Sequence of BSEP (O95342 whole entry): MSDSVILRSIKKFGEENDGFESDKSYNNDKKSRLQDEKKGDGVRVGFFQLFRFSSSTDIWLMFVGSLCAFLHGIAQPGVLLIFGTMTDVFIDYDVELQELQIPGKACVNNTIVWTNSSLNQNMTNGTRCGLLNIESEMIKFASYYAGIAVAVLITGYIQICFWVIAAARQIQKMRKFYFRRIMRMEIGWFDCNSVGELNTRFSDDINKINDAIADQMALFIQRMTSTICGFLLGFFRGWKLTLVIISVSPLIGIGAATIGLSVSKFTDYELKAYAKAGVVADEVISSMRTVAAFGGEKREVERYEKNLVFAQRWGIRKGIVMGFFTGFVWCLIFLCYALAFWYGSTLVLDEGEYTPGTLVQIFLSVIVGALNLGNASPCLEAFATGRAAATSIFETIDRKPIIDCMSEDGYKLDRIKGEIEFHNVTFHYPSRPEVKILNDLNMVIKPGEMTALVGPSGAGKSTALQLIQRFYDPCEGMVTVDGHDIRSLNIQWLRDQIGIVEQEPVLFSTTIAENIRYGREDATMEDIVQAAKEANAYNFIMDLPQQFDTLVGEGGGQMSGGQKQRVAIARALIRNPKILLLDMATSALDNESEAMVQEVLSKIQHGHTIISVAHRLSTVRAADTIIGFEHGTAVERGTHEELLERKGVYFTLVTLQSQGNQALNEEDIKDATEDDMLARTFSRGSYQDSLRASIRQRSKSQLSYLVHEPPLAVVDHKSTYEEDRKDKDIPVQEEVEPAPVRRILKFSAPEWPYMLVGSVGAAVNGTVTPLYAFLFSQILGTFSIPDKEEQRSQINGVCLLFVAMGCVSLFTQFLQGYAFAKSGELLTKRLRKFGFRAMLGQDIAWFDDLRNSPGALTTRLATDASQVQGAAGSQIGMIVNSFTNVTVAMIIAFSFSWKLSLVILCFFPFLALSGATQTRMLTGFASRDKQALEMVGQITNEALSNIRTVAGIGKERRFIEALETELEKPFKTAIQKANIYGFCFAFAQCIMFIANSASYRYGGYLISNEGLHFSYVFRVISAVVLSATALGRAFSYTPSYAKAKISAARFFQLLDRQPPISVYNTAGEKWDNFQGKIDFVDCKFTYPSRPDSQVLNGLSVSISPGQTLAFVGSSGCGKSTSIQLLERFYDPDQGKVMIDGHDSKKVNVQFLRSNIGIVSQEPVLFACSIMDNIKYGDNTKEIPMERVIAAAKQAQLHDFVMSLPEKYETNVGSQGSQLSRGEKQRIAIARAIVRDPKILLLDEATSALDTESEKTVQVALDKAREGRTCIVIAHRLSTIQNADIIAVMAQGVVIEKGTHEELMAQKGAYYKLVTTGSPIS

Row | SMILES | Papp at 120 min, 10 µM [1] | IC50 [2] | inhibition at 10 min, 50 μM (BSEP)
1 | C[C@@H](OC(=O)Nc1ccsc1-c1ccc(NC(=O)C2CCCCC2C(=O)O)cc1)c1ccccc1Cl (single isomer, unassigned) [Example 7] | ≥ 1.5 ×10⁻⁶ cm/s | < 50 nM | ≤ 50%
2 | Cc1noc(-c2ccc(NC(=O)C3CCCCC3C(=O)O)cn2)c1NC(=O)O[C@H](C)c1ccccc1 (stereo in doubt) [Example 40, Cis-2-((6-(3-methyl-4-((((R)-1-phenylethoxy)carbonyl)amino)isoxazol-5-y1)pyridin-3-yl)carbamoyl)cyclohexane-1-carboxylic acid] | ≥ 1.5 ×10⁻⁶ cm/s | 50 to 250 nM | ≤ 50%
3 | Cc1nc(-c2onc(C)c2NC(=O)O[C@H](C)c2ccccc2Cl)ccc1NC(=O)[C@H]1CCCC[C@@H]1C(=O)O [Example 1, (1S,2S)-2-((6-(4-((((R)-1-(2-chlorophenyl)ethoxy)carbonyl)amino)-3-methylisoxazol-5-yl)-2-methylpyridin-3-yl)carbamoyl)cyclohexane-1-carboxylic acid] | ≥ 1.5 ×10⁻⁶ cm/s |  | ≤ 50%
4 | Cc1nc(-c2onc(C)c2NC(=O)O[C@H](C)c2ccccc2Cl)ccc1NC(=O)[C@@H]1CCCC[C@H]1C(=O)O [Example 12, (1R,2R)-2-((6-(4-((((R)-1-(2-chlorophenyl)ethoxy)carbonyl)amino)-3-methylisoxazol-5-yl)-2-methylpyridin-3-yl)carbamoyl)cyclohexane-1-carboxylic acid] | ≥ 1.5 ×10⁻⁶ cm/s |  | ≤ 50%
5 | Cc1noc(-c2ccc(NC(=O)[C@H]3CCCC[C@@H]3C(=O)O)cn2)c1NC(=O)O[C@H](C)c1ccccc1Cl [Example 16, (1S,2S)-2-((6-(4-((((R)-1-(2-chlorophenyl)ethoxy)carbonyl)amino)-3-methylisoxazol-5-yl)pyridin-3-yl)carbamoyl)cyclohexane-1-carboxylic acid] | ≥ 1.5 ×10⁻⁶ cm/s |  | ≤ 50%
6 | Cc1nc(-c2onc(C)c2NC(=O)O[C@H](C)c2ccccc2F)ccc1NC(=O)[C@H]1CCCC[C@@H]1C(=O)O [Example 24, (1S,2S)-2-((6-(4-((((R)-1-(2-fluorophenyl)ethoxy)carbonyl)amino)-3-methylisoxazol-5-yl)-2-methylpyridin-3-yl)carbamoyl)cyclohexane-1-carboxylic acid] | ≥ 1.5 ×10⁻⁶ cm/s | < 50 nM | ≤ 50%
7 | Cc1nc(-c2onc(C)c2NC(=O)O[C@H](C)c2ccccc2C(F)(F)F)ccc1NC(=O)[C@H]1CCCC[C@@H]1C(=O)O [Example 25, (1S,2S)-2-((2-methyl-6-(3-methyl-4-((((R)-1-(2-(trifluoromethyl)phenyl)ethoxy)carbonyl)amino)isoxazol-5-yl)pyridin-3-yl)carbamoy1)cyclohexane-1-carboxylic acid] | ≥ 1.5 ×10⁻⁶ cm/s | 50 to 250 nM | ≤ 50%
8 | Cc1nc(-c2onc(C)c2NC(=O)O[C@H](C)c2ccccc2)ccc1NC(=O)[C@H]1CCCC[C@@H]1C(=O)O [Example 27, (1S,2S)-2-((2-methyl-6-(3-methyl-4-((((R)-1-phenylethoxy)carbonyl)amino)isoxazol-5-yl)pyridin-3-yl)carbamoy1)cyclohexane-1-carboxylic acid] | ≥ 1.5 ×10⁻⁶ cm/s |  | ≤ 50%
9 | Cc1nc(-c2onc(C)c2NC(=O)O[C@H](C)c2ccccc2Br)ccc1NC(=O)[C@H]1CCCC[C@@H]1C(=O)O [Example 28, (1S,2S)-2-((6-(4-((((R)-1-(2-bromophenyl)ethoxy)carbonyl)amino)-3-methylisoxazol-5-yl)-2-methylpyridin-3-yl)carbamoyl)cyclohexane-1-carboxylic acid] | ≥ 1.5 ×10⁻⁶ cm/s | < 50 nM | 
10 | Cc1ccccc1[C@@H](C)OC(=O)Nc1c(C)noc1-c1ccc(NC(=O)[C@H]2CCCC[C@@H]2C(=O)O)c(C)n1 [Example 32, (1S,2S)-2-((2-methyl-6-(3-methyl-4-((((R)-1-(o-toly1)ethoxy)carbonyl)amino)isoxazol-5-yl)pyridin-3-yl)carbamoyl)cyclohexane-1-carboxylic acid] | ≥ 1.5 ×10⁻⁶ cm/s |  | ≤ 50%
11 | Cc1nc(-c2onc(C)c2NC(=O)O[C@H](C)c2ccccc2)ccc1NC(=O)C1CCCCC1C(=O)O (stereo partly drawn) [Example 39, Cis-2-((2-methyl-6-(3-methyl-4-((((R)-1-phenylethoxy)carbonyl)amino)isoxazol-5-yl)pyridin-3-yl)carbamoyl)cyclohexane-1-carboxylic acid] | ≥ 1.5 ×10⁻⁶ cm/s |  | ≤ 50%
12 | CCC[C@@H](C)OC(=O)Nc1c(C)noc1-c1ccc(NC(=O)[C@H]2CCCC[C@@H]2C(=O)O)c(C)n1 [Example 49, (1S,2S)-2-((2-methyl-6-(3-methyl-4-(((((R)-pentan-2-yl)oxy)carbonyl)amino)isoxazol-5-yl)pyridin-3-yl)carbamoyl)cyclohexane-1-carboxylic acid] | ≥ 1.5 ×10⁻⁶ cm/s |  | ≤ 50%
13 | Cc1noc(-c2ccc(NC(=O)[C@H]3CCCC[C@@H]3C(=O)O)cc2)c1NC(=O)O[C@H](C)c1ccccc1Cl [comparative Example A, (1S,2S)-2-({4-[3-methyl-4-({[(1R)-1-(2-chlorophenyl)ethoxy]carbonyl}amino)-1,2-oxazol-5-yl]phenyl}carbamoyl)cyclohexane-1-carboxylic acid, reference compound] | < 1.5 ×10⁻⁶ cm/s |  | > 70%
